# Results from US20080305186A1, “Method and Composition for the Treatment of Cardiac Hypertrophy” (BOARD OF REGENTS, THE UNIVERSITY OF TEXAS SYSTEM, priority 2007, published 2008).
# Test system: cardiac gene expression
# Experiment: Microarray analysis of cardiac gene expression (GeneChip Mouse Genome 430 2.0)
# Format: in vivo, mice
# Description: Microarray Sample Preparation and Analysis. Animal hearts were rapidly removed, and the atria and right ventricles were cut and immediately plunged into TRIzol Reagent (Life Technologies). Total RNA was isolated following the manufacturer's instructions, purified by phenol-chloroform extraction and then ethanol precipitation, and 20 μg further processed for microarray analysis. Briefly, cDNA synthesis, in vitro transcription, and labeling and fragmentation to produce the oligonucleotide probes were performed as instructed by the GeneChip manufacturer (Affymetrix). The probes were first hybridized to a test array (Affymetrix) and then to the GeneChip Mouse Genome 430 2.0 Array, using the GeneChip Hybridization Oven 640. The chips were washed in a GeneChip Fluidics Station 450 (Affymetrix), and the results were visualized with a GeneChip G7 scanner (Affymetrix). RMA normalization, pairwise comparisons, Student's t test and Benjamini and Hochberg correction were subsequently performed using GeneSifter (VizX Labs, Seattle, Wash.) and Spotfire DecisionSite 8.3 (Spotfire, Inc., Somerville, Mass.).
# Effects on Gene Expression Profile. […] One mouse heart was used for each array, and was performed in triplicate, generating a total of 12 arrays. GeneSifter was used to perform RMA normalization, pairwise comparisons of averaged signal intensity values, and Student's t-test with Benjamini and Hochberg correction, and Spotfire was used to perform pairwise comparisons. […] Additionally, genes that were altered between any two N or cardiac hypertrophy samples were removed, as these alterations most likely represented normal variations between mice.
smiles,measurement,setting,value
C[C@H]1c2cccc(O)c2C(=O)C2=C(O)[C@]3(O)C(=O)C(C(N)=O)=C(O)[C@@H](N(C)C)[C@@H]3[C@@H](O)[C@@H]21 [doxycycline],FC Tubulointerstitial nephritis antigen-like (Tinagl),"GenBank BC005738, heart, drug + isoproterenol vs isoproterenol-only mice, CH vs normal FC 2.1",−1.8 fold
same,FC Tubulin alpha (Tuba2),"GenBank BC008117, heart, drug + isoproterenol vs isoproterenol-only mice, CH vs normal FC −2.7",4.1 fold
same,FC Intercellular adhesion molecule (Icam1),"GenBank BC008626, vs mice given only isoproterenol",−2.7
same,FC Similar to serine protease inhibitor-2 related sequee 1 (Serpina3m),"GenBank BC011158, vs mice given only isoproterenol",−2.4
same,FC Phosphatidylinositol binding clathrin assembly protein (Picalm),"GenBank BC011470, vs mice given only isoproterenol",−1.5
same,FC Isochorismatase domain containing 1 (Isoc1),"GenBank BC016576, vs mice given only isoproterenol",2.8
same,"FC EGF, latrophilin seven transmembrane domain containing 1 (Eltd1)","GenBank BC017134, vs mice given only isoproterenol",−2.0
same,"FC Ras homolog gene family, member B (RhoB)","GenBank BC018275, vs mice given only isoproterenol",−2.1
same,FC D site albumin promoter binding protein (Dbp),"GenBank BC018323, vs mice given only isoproterenol",10.2
same,FC RAD52 homolog (S. cerevisiae) (Rad52),"GenBank BC019123, vs mice given only isoproterenol",−1.8
same,FC Leucine-rich repeat-containing 3b (Lrrc3b),"GenBank BC019794, vs mice given only isoproterenol",1.9
same,"FC Solute carrier family 45, member 3 (Slc45a3)","GenBank BC024519, vs mice given only isoproterenol",−1.8
same,FC Rho GTPase activating protein 24 (Arhgap24),"GenBank BC025502, vs mice given only isoproterenol",−1.8
same,FC Motile sperm domain containing 2 (Mospd),"GenBank BC026425, vs mice given only isoproterenol",−1.7
same,FC Similar to metallothionein 1 (Mt1),"GenBank BC027262, vs mice given only isoproterenol",−2.7
same,FC Guanine deaminase (Gda),"GenBank BE136057, vs mice given only isoproterenol",−1.7
same,FC EST,"GenBank BE553782, vs mice given only isoproterenol",−1.6
same,FC EST,"GenBank BE630303, vs mice given only isoproterenol",−1.8
same,FC ESTs,"GenBank BE630363, vs mice given only isoproterenol",−3.1
same,FC ESTs,"GenBank BE685667, vs mice given only isoproterenol",−3.2
same,FC EST,"GenBank BE687858, vs mice given only isoproterenol",−1.5
same,FC EST,"GenBank BE852759, vs mice given only isoproterenol",1.7
same,FC Retinoblastoma binding protein 4 (Rbbp4),"GenBank BF011461, vs mice given only isoproterenol",2.1
same,FC Methyl-CpG binding domain protein 1 (Mbd1),"GenBank BF121558, vs mice given only isoproterenol",−1.8
same,FC SET translocation (Set),"GenBank BF134272, vs mice given only isoproterenol",2.0
same,FC Protein tyrosine phosphatase 4a1 (Ptp4a1),"GenBank BF179910, vs mice given only isoproterenol",−1.9
same,"FC Potassium channel, subfamily K, member 3 (Kcnk3)","GenBank BF467278, vs mice given only isoproterenol",3.9
same,FC Smoothelin (Smtn),"GenBank BF578669, vs mice given only isoproterenol",1.5
same,FC EST,"GenBank BF780807, vs mice given only isoproterenol",−1.9
same,FC ESTs,"GenBank BG067678, vs mice given only isoproterenol",2.6
same,FC EST,"GenBank BG068705, vs mice given only isoproterenol",−1.7
same,FC SET domain containing (lysine methyltransferase) 8)Setd8),"GenBank BG069700, vs mice given only isoproterenol",1.9
same,FC Neuronal PAS domain protein 2 (Npas2),"GenBank BG070037, vs mice given only isoproterenol",−2.6
same,"FC Pleckstrin homology domain containing, family G (with RhoGef domain) member 1 (Plekhg1)","GenBank BG073502, vs mice given only isoproterenol",−2.0
same,FC Microtubule-actin crosslinking factor 1 (Macf1),"GenBank BG074706, vs mice given only isoproterenol",2.7
same,FC Insulin-like growth factor 1 (Igf1),"GenBank BG075165, vs mice given only isoproterenol",2.3
same,FC p53 regulated PA26 nuclear protein (Sestrin 1) (Sesn1),"GenBank BG076140, 1st listing, vs mice given only isoproterenol",−2.9
same,FC p53 regulated PA26 nuclear protein (Sestrin 1) (Sesn1),"GenBank BG076140, 2nd listing, vs mice given only isoproterenol",−3.5
same,FC EST,"GenBank BG092512, vs mice given only isoproterenol",−2.9
same,"FC Transforming growth factor, beta receptor II (Tgfbr2)","GenBank BG793483, heart, drug + isoproterenol vs isoproterenol-only mice, CH vs normal FC 2.4",−2.3 fold
same,FC Restin-like 2 (Rsnl2),"GenBank BG916957, vs mice given only isoproterenol",1.9
same,FC mVL30-1 retroelement,"GenBank BI076714, vs mice given only isoproterenol",−2.1
same,FC Methylcrotonoyl-Coenzyme A carboxylase 2 (beta) (Mccc2),"GenBank BI155184, vs mice given only isoproterenol",1.7
same,"FC Transforming, acidic coiled-coil containing protein 2 (Tacc2)","GenBank BI466416, heart, drug + isoproterenol vs isoproterenol-only mice, CH vs normal FC 2.6",−2.5 fold
same,FC PHD finger protein 15 (Phf15),"GenBank BI663145, vs mice given only isoproterenol",−2.1
same,FC Tissue inhibitor of metalloproteinase 4 (Timp4),"GenBank BI788452, heart, drug + isoproterenol vs isoproterenol-only mice, CH vs normal FC 3.2",−3.1 fold
same,FC Zi finger and BTB domain containing 16 (Zbtb16),"GenBank BM115255, heart, drug + isoproterenol vs isoproterenol-only mice, CH vs normal FC 7.5",−1.6 fold
same,"FC GTL2, imprinted maternally expressed untranslated mRNA (Gtl2)","GenBank BM119226, vs mice given only isoproterenol",1.7
same,FC Ectodermal-neural cortex 1 (E1),"GenBank BM120053, 1st listing, vs mice given only isoproterenol",−2.0
same,FC Ectodermal-neural cortex 1 (E1),"GenBank BM120053, 2nd listing, vs mice given only isoproterenol",−1.9
same,FC Pellino 2(peli2),"GenBank BM121149, vs mice given only isoproterenol",−1.9
same,FC REST corepressor 1 (Rcor1),"GenBank BM194994, vs mice given only isoproterenol",3.3
same,FC EST,"GenBank BM219553, vs mice given only isoproterenol",−2.6
same,FC Phospholipase D1 (Pld1),"GenBank BM228590, 1st listing, vs mice given only isoproterenol",−2.0
same,FC Phospholipase D1 (Pld1),"GenBank BM228590, 2nd listing, vs mice given only isoproterenol",−1.6
same,FC SET translocation (Set),"GenBank BM229104, vs mice given only isoproterenol",2.0
same,FC p53 regulated PA26 nuclear protein (Sestrin 1) (Sesn1),"GenBank BM237933, vs mice given only isoproterenol",−2.4
same,FC Macrophage activation 2 (Mpa21),"GenBank BM241485, vs mice given only isoproterenol",−3.6
same,FC Prohibitin (Phb),"GenBank BM243379, vs mice given only isoproterenol",−2.1
same,FC Serine iorporator 3 (Seri3),"GenBank BM244064, vs mice given only isoproterenol",−1.8
